{"source": "paper PMC3415572", "about": "(Journal of medicinal chemistry, 2012)", "key": {"D3R": {"biological_target": "D3R (Homo sapiens, UniProt P35462)", "sequence (P35462 whole entry)": "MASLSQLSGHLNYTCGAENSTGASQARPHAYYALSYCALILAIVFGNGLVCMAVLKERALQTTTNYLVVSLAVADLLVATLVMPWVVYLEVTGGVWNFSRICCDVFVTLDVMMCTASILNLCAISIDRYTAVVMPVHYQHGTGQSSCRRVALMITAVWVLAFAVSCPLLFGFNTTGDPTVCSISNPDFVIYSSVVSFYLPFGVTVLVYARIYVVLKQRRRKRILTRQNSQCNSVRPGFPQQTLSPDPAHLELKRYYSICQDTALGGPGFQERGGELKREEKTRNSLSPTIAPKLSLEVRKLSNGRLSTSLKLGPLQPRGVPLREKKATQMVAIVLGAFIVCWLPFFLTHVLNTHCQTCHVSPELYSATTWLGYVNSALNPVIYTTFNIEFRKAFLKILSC", "experiment": "BRET1-based GoA activation assay, D3R", "format": "cell-based", "conditions": "for efficacy type at D3R (in words): GoA BRET; for efficacy type at D3R (in words) / Emax in the Go BRET assay, D3R: HEK293T; for Emax in the Go BRET assay, D3R: dose-response 100 pM to 100 µM"}, "D2R": {"biological_target": "D2R (Homo sapiens, UniProt P14416)", "sequence (P14416 1-414 isoform P14416-2)": "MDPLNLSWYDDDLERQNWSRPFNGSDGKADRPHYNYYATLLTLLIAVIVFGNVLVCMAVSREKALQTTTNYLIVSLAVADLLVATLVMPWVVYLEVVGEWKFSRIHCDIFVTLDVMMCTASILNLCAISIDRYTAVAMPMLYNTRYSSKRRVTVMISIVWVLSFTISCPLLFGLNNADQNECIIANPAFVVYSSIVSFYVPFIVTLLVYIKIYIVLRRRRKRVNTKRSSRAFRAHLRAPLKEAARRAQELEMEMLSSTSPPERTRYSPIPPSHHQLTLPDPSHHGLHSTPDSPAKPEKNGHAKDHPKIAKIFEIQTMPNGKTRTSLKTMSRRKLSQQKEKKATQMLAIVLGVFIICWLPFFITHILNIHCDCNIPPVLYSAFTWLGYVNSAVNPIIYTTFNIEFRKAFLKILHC", "experiment": "BRET1-based GoA activation assay, D2R", "format": "cell-based"}, "[1]": {"conditions": "HEK293T, dose-response 100 pM to 100 µM"}}, "note": "Entries after “also recorded” stand apart in the source; their conditions may differ. Like-named read-outs stand apart in the source and are kept apart here.", "data": [{"smiles": "O=C(NCC[C@@H](O)CN1CCN(c2cccc(Cl)c2Cl)CC1)c1cc2ccccc2[nH]1", "note": "[Compound 2]", "values": [{"measurement": "efficacy type at D3R (in words)", "setting": "D3R", "result": "weak partial agonism"}]}, {"smiles": "CCc1cc(Cl)c(OC)c(C(=O)NC[C@@H]2CCCN2CC)c1O", "note": "[Compound 3, eticlopride, reference compound]", "values": [{"measurement": "efficacy type at D3R (in words)", "setting": "D3R", "result": "inverse agonist"}]}, {"smiles": "O=C(NCCCCN1CCN(c2cccc(Cl)c2Cl)CC1)c1cc2ccccc2[nH]1", "note": "[Compound 4, N-(4-(4-(2,3-dichlorophenyl)piperazin-1-yl)butyl)-1H-indole-2-carboxamide]", "values": [{"measurement": "efficacy type at D3R (in words)", "setting": "D3R", "result": "weak partial agonism"}, {"measurement": "Emax in the Go BRET assay, D3R", "setting": "D3R", "result": "16.00 % of the Emax of dopamine"}, {"measurement": "efficacy type at D2R (in words)", "setting": "D2R; GoA BRET, HEK293T", "result": "weak partial agonism"}]}, {"smiles": "COc1ccccc1N1CCN(CCCCNC(=O)c2cc3ccccc3[nH]2)CC1", "note": "[Compound 5]", "values": [{"measurement": "efficacy type at D3R (in words)", "setting": "D3R", "result": "weak partial agonism"}, {"measurement": "Emax in the Go BRET assay, D3R", "setting": "D3R", "result": "8.38 % of the Emax of dopamine"}, {"measurement": "efficacy type at D2R (in words)", "setting": "D2R; GoA BRET, HEK293T", "result": "weak partial agonism"}, {"measurement": "Emax in the Go BRET assay, D2R", "setting": "D2R; [1]", "result": "13.65 % of the Emax of dopamine"}]}, {"smiles": "CCN1CCCC1CNC(=O)c1cc(S(N)(=O)=O)ccc1OC", "note": "(stereo not shown) [Compound 7, sulpiride, reference compound]", "values": [{"measurement": "efficacy type at D3R (in words)", "setting": "D3R", "result": "inverse agonist"}, {"measurement": "Emax in the Go BRET assay, D3R", "setting": "D3R", "result": "−6.83 % of the Emax of dopamine"}, {"measurement": "shift of dopamine dose-response curve at D3R", "setting": "D3R; sulpiride 100 nM", "result": "dramatically right-shifted the potency of dopamine"}, {"measurement": "efficacy type at D2R (in words)", "setting": "D2R; GoA BRET, HEK293T", "result": "inverse agonist"}, {"measurement": "Emax in the Go BRET assay, D2R", "setting": "D2R; [1]", "result": "−6.26 % of the Emax of dopamine"}, {"measurement": "shift of dopamine dose-response curve at D2R", "setting": "D2R; sulpiride 100 nM", "result": "dramatically right-shifted the potency of dopamine"}]}, {"smiles": "Clc1cccc(N2CCNCC2)c1Cl", "note": "[Compound 8, 2,3-diCl-4-phenylpiperazine]", "values": [{"measurement": "efficacy type at D3R (in words)", "setting": "D3R", "result": "substantial partial agonism"}, {"measurement": "Emax in the Go BRET assay, D3R", "setting": "D3R", "result": "57.27 % of the Emax of dopamine"}, {"measurement": "efficacy type at D2R (in words)", "setting": "D2R; GoA BRET, HEK293T", "result": "substantial partial agonism"}, {"measurement": "Emax in the Go BRET assay, D2R", "setting": "D2R; [1]", "result": "40.03 % of the Emax of dopamine"}]}, {"smiles": "COc1ccccc1N1CCNCC1", "note": "[Compound 9, 2-OCH3-4-phenylpiperazine]", "values": [{"measurement": "efficacy type at D3R (in words)", "setting": "D3R", "result": "only minimal efficacy"}, {"measurement": "Emax in the Go BRET assay, D3R", "setting": "D3R", "result": "6.27 % of the Emax of dopamine"}, {"measurement": "Emax in the Go BRET assay, D2R", "setting": "D2R", "result": "14.02 % of the Emax of dopamine"}, {"measurement": "efficacy type at D2R (in words)", "setting": "D2R", "result": "only minimal efficacy"}]}, {"smiles": "CN1CCN(c2cccc(Cl)c2Cl)CC1", "note": "[Compound 10, 1-(2,3-Dichlorophenyl)-4-methylpiperazine]", "values": [{"measurement": "Emax in the Go BRET assay, D3R", "setting": "D3R", "result": "37.53 % of the Emax of dopamine"}]}, {"smiles": "COc1ccccc1N1CCN(C)CC1", "note": "[Compound 11, 1-(2-Methoxyphenyl)-4-methylpiperazine]", "values": [{"measurement": "Emax in the Go BRET assay, D3R", "setting": "D3R", "result": "7.11 % of the Emax of dopamine"}]}, {"smiles": "OCCN1CCN(c2cccc(Cl)c2Cl)CC1", "note": "[Compound 12, 2-(4-(2,3-Dichlorophenyl)piperazin-1-yl)ethanol]", "values": [{"measurement": "Emax in the Go BRET assay, D3R", "setting": "D3R", "result": "21.08 % of the Emax of dopamine"}]}, {"smiles": "CCCN1CCN(c2cccc(Cl)c2Cl)CC1", "note": "[Compound 13, 1-(2,3-Dichlorophenyl)-4-propylpiperazine]", "values": [{"measurement": "Emax in the Go BRET assay, D3R", "setting": "D3R", "result": "17.53 % of the Emax of dopamine"}]}, {"smiles": "CCCCN1CCN(c2cccc(Cl)c2Cl)CC1", "note": "[Compound 14, 1-Butyl-4-(2,3-dichlorophenyl)piperazine]", "values": [{"measurement": "Emax in the Go BRET assay, D3R", "setting": "D3R", "result": "14.13 % of the Emax of dopamine"}]}, {"smiles": "CCCCN1CCN(c2ccccc2OC)CC1", "note": "[Compound 15, 1-Butyl-4-(2-methoxyphenyl)piperazine]", "values": [{"measurement": "Emax in the Go BRET assay, D3R", "setting": "D3R", "result": "9.40 % of the Emax of dopamine"}]}, {"smiles": "CCC(=O)NCCCCN1CCN(c2cccc(Cl)c2Cl)CC1", "note": "[Compound 16]", "values": [{"measurement": "Emax in the Go BRET assay, D3R", "setting": "D3R", "result": "22.32 % of the Emax of dopamine"}]}, {"smiles": "CCC(=O)NCCCCN1CCN(c2ccccc2OC)CC1", "note": "[Compound 17]", "values": [{"measurement": "Emax in the Go BRET assay, D3R", "setting": "D3R", "result": "7.37 % of the Emax of dopamine"}]}, {"smiles": "CCCCNC(=O)c1cc2ccccc2[nH]1", "note": "[Compound 18, N-Butyl-1H-indole-2-carboxamide]", "values": [{"measurement": "efficacy type at D3R (in words)", "setting": "D3R", "result": "no activity; also recorded: failed to activate"}, {"measurement": "Emax in the Go BRET assay, D3R", "setting": "D3R", "result": "−0.65 % of the Emax of dopamine"}]}, {"smiles": "NCCc1ccc(O)c(O)c1", "note": "[dopamine, reference compound]", "values": [{"measurement": "efficacy type at D2R (in words)", "setting": "D2R", "result": "full agonists"}]}]}
